# Columns and labels:
# Hela cell line = experiment: Cytotoxicity MTS assay, Hela cell line; assay type: cell-based; details: for OD490 Mean / OD490 Well 1 / OD490 Well 2 / OD490 Well 3: Hela cell line;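 for OD490 Mean: blank control DMSO at 0.025% final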;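 for OD490 Well 1: blank control DMSO at 0.025% final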;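 for OD490 Well 2: blank control DMSO at 0.025% final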;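 for OD490 Well 3: blank control DMSO at 0.025% final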
# Procedure, shortened: (§1)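 Absorbance at 490 nm after a 2 h MTS step at 37 °C gave cell viability. Before that, cells plated at 1000/well were treated for 24 h with compounds spanning 0.5–100 µM (final). IC50 values were fitted by non-linear regression of percent viability versus concentration.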
# Caco-2 cell line = experiment: Cytotoxicity MTS assay, Caco-2 cell line; assay type: cell-based; details: for OD490 Mean / OD490 Well 1 / OD490 Well 2 / OD490 Well 3: Caco-2 cell line
# Procedure, shortened: as §1
structure (smiles),measurement,setting,value
COC(=O)c1[nH]c(C2NC(=S)NC(C)=C2C(=O)c2ccccc2)c(C(=O)OC)c1C (stereo not shown) [D14],OD490 Mean,"Hela cell line; 0.5μM, first assay",2.3692
same,OD490 Well 1,"Hela cell line; 0.5μM, first assay",2.2024
same,OD490 Well 2,"Hela cell line; 0.5μM, first assay",2.5165
same,OD490 Well 3,"Hela cell line; 0.5μM, first assay",2.3887
same,OD490 Mean,"Hela cell line; 0.5μM, second assay",2.4577
same,OD490 Well 1,"Hela cell line; 0.5μM, second assay",2.5398
same,OD490 Well 2,"Hela cell line; 0.5μM, second assay",2.4478
same,OD490 Well 3,"Hela cell line; 0.5μM, second assay",2.3854
same,OD490 Mean,"Hela cell line; 0.5μM, third assay",2.5210
same,OD490 Well 1,"Hela cell line; 0.5μM, third assay",2.5365
same,OD490 Well 2,"Hela cell line; 0.5μM, third assay",2.6899
same,OD490 Well 3,"Hela cell line; 0.5μM, third assay",2.3365
same,OD490 Mean,"Hela cell line; 1μM, first assay",2.4838
same,OD490 Well 1,"Hela cell line; 1μM, first assay",2.3561
same,OD490 Well 2,"Hela cell line; 1μM, first assay",2.5456
same,OD490 Well 3,"Hela cell line; 1μM, first assay",2.5498
same,OD490 Mean,"Hela cell line; 1μM, second assay",2.4907
same,OD490 Well 1,"Hela cell line; 1μM, second assay",2.5353
same,OD490 Well 2,"Hela cell line; 1μM, second assay",2.4889
same,OD490 Well 3,"Hela cell line; 1μM, second assay",2.4478
same,OD490 Mean,"Hela cell line; 1μM, third assay",2.5269
same,OD490 Well 1,"Hela cell line; 1μM, third assay",2.4563
same,OD490 Well 2,"Hela cell line; 1μM, third assay",2.5587
same,OD490 Well 3,"Hela cell line; 1μM, third assay",2.5656
same,OD490 Mean,"Hela cell line; 10μM, first assay",2.5226
same,OD490 Well 1,"Hela cell line; 10μM, first assay",2.5006
same,OD490 Well 2,"Hela cell line; 10μM, first assay",2.6290
same,OD490 Well 3,"Hela cell line; 10μM, first assay",2.4381
same,OD490 Mean,"Hela cell line; 10μM, second assay",2.5413
same,OD490 Well 1,"Hela cell line; 10μM, second assay",2.4987
same,OD490 Well 2,"Hela cell line; 10μM, second assay",2.5687
same,OD490 Well 3,"Hela cell line; 10μM, second assay",2.5565
same,OD490 Mean,"Hela cell line; 10μM, third assay",2.5164
same,OD490 Well 1,"Hela cell line; 10μM, third assay",2.5321
same,OD490 Well 2,"Hela cell line; 10μM, third assay",2.4598
same,OD490 Well 3,"Hela cell line; 10μM, third assay",2.5574
same,OD490 Mean,"Hela cell line; 25μM, first assay",2.4708
same,OD490 Well 1,"Hela cell line; 25μM, first assay",2.2633
same,OD490 Well 2,"Hela cell line; 25μM, first assay",2.6154
same,OD490 Well 3,"Hela cell line; 25μM, first assay",2.5338
same,OD490 Mean,"Hela cell line; 25μM, second assay",2.5615
same,OD490 Well 1,"Hela cell line; 25μM, second assay",2.5835
same,OD490 Well 2,"Hela cell line; 25μM, second assay",2.5478
same,OD490 Well 3,"Hela cell line; 25μM, second assay",2.5532
same,OD490 Mean,"Hela cell line; 25μM, third assay",2.4824
same,OD490 Well 1,"Hela cell line; 25μM, third assay",2.3365
same,OD490 Well 2,"Hela cell line; 25μM, third assay",2.4587
same,OD490 Well 3,"Hela cell line; 25μM, third assay",2.6521
same,OD490 Mean,"Hela cell line; 50μM, first assay",2.7660
same,OD490 Well 1,"Hela cell line; 50μM, first assay",2.6176
same,OD490 Well 2,"Hela cell line; 50μM, first assay",2.8052
same,OD490 Well 3,"Hela cell line; 50μM, first assay",2.8752
same,OD490 Mean,"Hela cell line; 50μM, second assay",2.6584
same,OD490 Well 1,"Hela cell line; 50μM, second assay",2.6324
same,OD490 Well 2,"Hela cell line; 50μM, second assay",2.5687
same,OD490 Well 3,"Hela cell line; 50μM, second assay",2.7741
same,OD490 Mean,"Hela cell line; 50μM, third assay",2.5680
same,OD490 Well 1,"Hela cell line; 50μM, third assay",2.5574
same,OD490 Well 2,"Hela cell line; 50μM, third assay",2.4768
same,OD490 Well 3,"Hela cell line; 50μM, third assay",2.6698
same,OD490 Mean,"Hela cell line; 100μM, first assay",2.5211
same,OD490 Well 1,"Hela cell line; 100μM, first assay",2.7163
same,OD490 Well 2,"Hela cell line; 100μM, first assay",2.4550
same,OD490 Well 3,"Hela cell line; 100μM, first assay",2.3919
same,OD490 Mean,"Hela cell line; 100μM, second assay",2.5251
same,OD490 Well 1,"Hela cell line; 100μM, second assay",2.6987
same,OD490 Well 2,"Hela cell line; 100μM, second assay",2.4465
same,OD490 Well 3,"Hela cell line; 100μM, second assay",2.4301
same,OD490 Mean,"Hela cell line; 100μM, third assay",2.6068
same,OD490 Well 1,"Hela cell line; 100μM, third assay",2.6689
same,OD490 Well 2,"Hela cell line; 100μM, third assay",2.5641
same,OD490 Well 3,"Hela cell line; 100μM, third assay",2.5874
same,IC50,"Hela cell line; MTS assay, 24 h exposure",> 150 µM
same,OD490 Mean,"Caco-2 cell line; 0.5μM, first assay",0.5996
same,OD490 Well 1,"Caco-2 cell line; 0.5μM, first assay",0.5553
same,OD490 Well 2,"Caco-2 cell line; 0.5μM, first assay",0.5560
same,OD490 Well 3,"Caco-2 cell line; 0.5μM, first assay",0.6875
same,OD490 Mean,"Caco-2 cell line; 0.5μM, second assay",0.6725
same,OD490 Well 1,"Caco-2 cell line; 0.5μM, second assay",0.6506
same,OD490 Well 2,"Caco-2 cell line; 0.5μM, second assay",0.6879
same,OD490 Well 3,"Caco-2 cell line; 0.5μM, second assay",0.6791
same,OD490 Mean,"Caco-2 cell line; 0.5μM, third assay",0.6452
same,OD490 Well 1,"Caco-2 cell line; 0.5μM, third assay",0.6120
same,OD490 Well 2,"Caco-2 cell line; 0.5μM, third assay",0.6285
same,OD490 Well 3,"Caco-2 cell line; 0.5μM, third assay",0.6952
same,OD490 Mean,"Caco-2 cell line; 1μM, second assay",0.6718
same,OD490 Well 1,"Caco-2 cell line; 1μM, second assay",0.6251
same,OD490 Well 2,"Caco-2 cell line; 1μM, second assay",0.6916
same,OD490 Well 3,"Caco-2 cell line; 1μM, second assay",0.6987
same,OD490 Mean,"Caco-2 cell line; 1μM, third assay",0.6246
same,OD490 Well 1,"Caco-2 cell line; 1μM, third assay",0.6324
same,OD490 Well 2,"Caco-2 cell line; 1μM, third assay",0.6014
same,OD490 Well 3,"Caco-2 cell line; 1μM, third assay",0.6401
same,OD490 Mean,"Caco-2 cell line; 10μM, first assay",0.6223
same,OD490 Well 1,"Caco-2 cell line; 10μM, first assay",0.6178
same,OD490 Well 2,"Caco-2 cell line; 10μM, first assay",0.6082
same,OD490 Well 3,"Caco-2 cell line; 10μM, first assay",0.6409
same,OD490 Mean,"Caco-2 cell line; 10μM, second assay",0.6139
same,OD490 Well 1,"Caco-2 cell line; 10μM, second assay",0.6136
same,OD490 Well 2,"Caco-2 cell line; 10μM, second assay",0.6117
same,OD490 Well 3,"Caco-2 cell line; 10μM, second assay",0.6164
same,OD490 Mean,"Caco-2 cell line; 10μM, third assay",0.6241
same,OD490 Well 1,"Caco-2 cell line; 10μM, third assay",0.5987
same,OD490 Well 2,"Caco-2 cell line; 10μM, third assay",0.6312
same,OD490 Well 3,"Caco-2 cell line; 10μM, third assay",0.6424
same,OD490 Mean,"Caco-2 cell line; 25μM, first assay",0.5939
same,OD490 Well 1,"Caco-2 cell line; 25μM, first assay",0.5396
same,OD490 Well 2,"Caco-2 cell line; 25μM, first assay",0.5578
same,OD490 Well 3,"Caco-2 cell line; 25μM, first assay",0.6844
same,OD490 Mean,"Caco-2 cell line; 25μM, second assay",0.5279
same,OD490 Well 1,"Caco-2 cell line; 25μM, second assay",0.4988
same,OD490 Well 2,"Caco-2 cell line; 25μM, second assay",0.5384
same,OD490 Well 3,"Caco-2 cell line; 25μM, second assay",0.5466
same,OD490 Mean,"Caco-2 cell line; 25μM, third assay",0.5570
same,OD490 Well 1,"Caco-2 cell line; 25μM, third assay",0.5324
same,OD490 Well 2,"Caco-2 cell line; 25μM, third assay",0.5784
same,OD490 Well 3,"Caco-2 cell line; 25μM, third assay",0.5601
same,OD490 Mean,"Caco-2 cell line; 50μM, first assay",0.5128
same,OD490 Well 1,"Caco-2 cell line; 50μM, first assay",0.5310
same,OD490 Well 2,"Caco-2 cell line; 50μM, first assay",0.5192
same,OD490 Well 3,"Caco-2 cell line; 50μM, first assay",0.4883
same,OD490 Mean,"Caco-2 cell line; 50μM, second assay",0.5200
same,OD490 Well 1,"Caco-2 cell line; 50μM, second assay",0.5229
same,OD490 Well 2,"Caco-2 cell line; 50μM, second assay",0.564
same,OD490 Well 3,"Caco-2 cell line; 50μM, second assay",0.4732
same,OD490 Mean,"Caco-2 cell line; 50μM, third assay",0.4713
same,OD490 Well 1,"Caco-2 cell line; 50μM, third assay",0.4985
same,OD490 Well 2,"Caco-2 cell line; 50μM, third assay",0.4532
same,OD490 Well 3,"Caco-2 cell line; 50μM, third assay",0.4621
same,OD490 Mean,"Caco-2 cell line; 100μM, first assay",0.4642
same,OD490 Well 1,"Caco-2 cell line; 100μM, first assay",0.4537
same,OD490 Well 2,"Caco-2 cell line; 100μM, first assay",0.4965
same,OD490 Well 3,"Caco-2 cell line; 100μM, first assay",0.4424
same,OD490 Mean,"Caco-2 cell line; 100μM, second assay",0.4817
same,OD490 Well 1,"Caco-2 cell line; 100μM, second assay",0.4326
same,OD490 Well 2,"Caco-2 cell line; 100μM, second assay",0.5246
same,OD490 Well 3,"Caco-2 cell line; 100μM, second assay",0.4878
same,OD490 Mean,"Caco-2 cell line; 100μM, third assay",0.4653
same,OD490 Well 1,"Caco-2 cell line; 100μM, third assay",0.4632
same,OD490 Well 2,"Caco-2 cell line; 100μM, third assay",0.4397
same,OD490 Well 3,"Caco-2 cell line; 100μM, third assay",0.4930
same,IC50,"Caco-2 cell line; MTS assay, 24 h exposure",103 µM

# From PMC8037182, “Solvothermal Synthesis of Multiple Dihydropyrimidinones at a Time as Inhibitors of Eg5” (Molecules, 2021)
